# pEC50: −log10 of the molar value.
# Legend:
# dopamine D1 receptor = target: T1, dopamine D1 receptor (Homo sapiens, UniProt P21728); assay: cAMP HTRF potentiation assay (PAM, in the presence of EC20 dopamine); format: cell-based; conditions: for Erel (%): maximal % potentiation relative to dopamine maximal response (100%), EC20 dopamine, LMtk cells expressing D1 receptor; for pEC50: potentiation of cAMP levels with EC20 dopamine (1.1 nM), LMtk mouse fibroblast cells expressing D1 receptor
# T1 construct: host or cells: LMtk (Ltk-) mouse fibroblast cells
# Experimental: The potentiation assay measures the ability of compounds to increase the levels of cAMP produced by a low-threshold concentration of dopamine. The concentration of dopamine used ([EC20]) is designed to produce 20% stimulation compared to the maximal response (100%) seen with increasing the concentration of dopamine. To measure this potentiation increasing concentrations of the compound with the [EC20] of dopamine are incubated and the potentiation is measured as increases in cAMP production and concentration of compound which produces 50% of the potentiation of the cAMP levels is measured.
# Cells were cultured at 37° C. in a humidified atmosphere of 5% CO2. Cells were grown in DMEM-F12+GlutaMAX™-I medium (GIBCO®, Invitrogen, Merelbeke, Belgium) containing 10% fetal bovine serum (BioWhittaker®, Lonza, Verviers, Belgium), 400 μg/mL Geneticin (GIBCO®), 100 IU/mL Penicillin and 100 IU/mL Streptomycin (Pen-Strep solution, BioWhittaker®).
# The measurement of changes in intracellular cyclic adenosinemonophopshpate (cAMP) was determined using the HTRF cAMP dynamic assay kit from CisBio (Codolet, France). Using homogenous time-resolved fluoresence technology, the assay is based on competition between native cAMP produced by cells and cAMP labelled with the dye d2. The tracer binding is determined by an anti-cAMP antibody labeled with cryptate. The effects of the compound alone (agonism) was determined by performing the assay in the absence of dopamine, whilst the effect of the compound as a positive allosteric modulator (PAM) was determined in the presence of an EC20 concentration of dopamine. Cells (20,000 per well) are incubated in 384 plates for 1 hour at room temperature in a final volume of 20 μLHBSS (Lonza, with calcium, magnesium and HEPES buffer 20 mM, pH 7.4) containing: isobutyl methylxanthine (Sigma, 0.1 mM final), varying concentrations of test compound (typically 10^−9.5M to […]) in the presence and absence of dopamine (1.1 nM final). The reaction is then terminated and the cells lysed by adding the d2 detection reagent in lysis buffer (10 microL) and the cryptate reagent in lysis buffer (10 microl) according to manufacturer's instructions. This is then incubated for a further 60 min at room temperature and changes in HTRF fluorescent emission ratio determined according to manufacturer's instructions using an Envision plate reader (Perkin Elmer, Zaventem, Belgium) with laser excitation. All incubations were performed in duplicate and results were compared to a concentration-effect curve to dopamine. (10^−11 M to 10^−6 M).
# Data was analyzed using Excel and PRISM (GraphPad Software) to obtain pEC50 and Erel using the 4-parameter logistic equation (DeLean et al, 1978) where Erel is the fitted maximal response of the test compound minus basal expressed as a percentage relative to that obtained with dopamine which was defined as 100%.
# The pEC50 of a compound is the −log10 of the concentration of the compound which produces 50% of the potentiation of the cAMP levels.
# The Erel is the relative efficacy, defined as the maximal % potentiation produced by the compound compared to the maximal response produced by increasing concentrations of dopamine (Erel of 1=dopamine maximum response), has been measured.
# [1] = target: T2, human GABAA receptor α1, β2 and γ2 subunits (Homo sapiens, UniProt P14867+P18507+P47870); assay: Automated patch clamp studies on the GABAA receptor (IonFlux HT); format: cell-based; conditions: 10 μM compound; 15 μM GABA as agonist; CHO-K1 cells expressing human GABAA α1β2γ2
# T2 construct: expressed in transfected cells
# Experimental: CHO-K1 cells stably expressing human GABAA receptor α1, β2 and γ2 subunits were used. The cells were harvested using trypsin and maintained in serum-free medium at room temperature. The cells were washed and re-suspended in extracellular solution before testing.
# Experiments on human GABAA (α1β2γ2) channels were conducted using an automated patch clamp assay (IonFlux™ HT). Compounds were tested at 3 concentrations (0.1, 1, and 10 μM) in 3 to 4 cells. The external solution for recording GABAA currents was composed of sodium chloride 137 mM, potassium chloride 4 mM, calcium chloride 1.8 mM, magnesium chloride 1 mM, HEPES 10 mM, and glucose 10 mM. Both external and internal solutions were titrated with NaOH or KOH to obtain a pH of 7.35 or 7.3, respectively. The internal pipette solution contained potassium fluoride 70 mM, potassium chloride 60 mM, sodium chloride 70 mM, HEPES 5 mM, EGTA 5 mM, and Magnesium ATP 4 mM. The final concentration of vehicle used to dilute compounds was 0.33% DMSO in each well. Bicuculline (0.032 to 100 μM) was used as positive control inhibitor. GABA (15 μM) was used as agonist. All recordings were obtained from a holding potential of −60 mV.
# The compound addition sequence was the following: one addition of the EC80 concentration of GABA was added to establish baseline response. Each concentration of compound was applied for 30 seconds followed by the addition of 15 μM GABA in the presence of the compound for 2 seconds. The process was repeated with the next ascending concentration of compound. Peak inward currents in response to the GABA additions in the presence of a single concentration of compound were measured. All compound data have been normalized to the baseline peak current induced by addition of 15 μM GABA for 2 seconds.
# T2 sequence (P14867 28-456): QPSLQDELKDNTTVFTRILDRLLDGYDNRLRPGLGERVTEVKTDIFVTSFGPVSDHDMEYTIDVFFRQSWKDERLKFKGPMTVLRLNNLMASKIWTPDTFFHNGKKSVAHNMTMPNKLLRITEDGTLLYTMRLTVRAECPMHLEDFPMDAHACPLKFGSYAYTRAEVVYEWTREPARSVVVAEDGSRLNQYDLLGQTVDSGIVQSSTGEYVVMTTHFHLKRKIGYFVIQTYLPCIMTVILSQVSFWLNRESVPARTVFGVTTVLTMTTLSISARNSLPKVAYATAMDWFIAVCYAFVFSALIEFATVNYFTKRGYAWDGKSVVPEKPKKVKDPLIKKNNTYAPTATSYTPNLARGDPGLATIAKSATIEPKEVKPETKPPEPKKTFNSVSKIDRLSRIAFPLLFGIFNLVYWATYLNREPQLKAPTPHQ
# T2 sequence (P47870 25-512 limits assumed): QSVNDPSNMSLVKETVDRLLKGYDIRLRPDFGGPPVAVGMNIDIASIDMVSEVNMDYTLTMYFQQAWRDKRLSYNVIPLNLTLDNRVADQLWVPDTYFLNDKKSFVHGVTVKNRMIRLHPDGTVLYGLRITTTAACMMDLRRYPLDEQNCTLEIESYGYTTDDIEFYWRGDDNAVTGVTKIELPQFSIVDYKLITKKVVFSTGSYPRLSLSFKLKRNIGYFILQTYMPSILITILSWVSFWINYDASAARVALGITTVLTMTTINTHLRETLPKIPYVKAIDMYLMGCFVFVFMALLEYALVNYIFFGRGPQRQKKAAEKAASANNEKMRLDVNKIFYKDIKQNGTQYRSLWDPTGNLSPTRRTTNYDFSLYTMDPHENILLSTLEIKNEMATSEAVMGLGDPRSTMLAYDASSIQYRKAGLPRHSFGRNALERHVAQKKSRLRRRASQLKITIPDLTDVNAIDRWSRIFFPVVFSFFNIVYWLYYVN
# T2 sequence (P18507 40-475): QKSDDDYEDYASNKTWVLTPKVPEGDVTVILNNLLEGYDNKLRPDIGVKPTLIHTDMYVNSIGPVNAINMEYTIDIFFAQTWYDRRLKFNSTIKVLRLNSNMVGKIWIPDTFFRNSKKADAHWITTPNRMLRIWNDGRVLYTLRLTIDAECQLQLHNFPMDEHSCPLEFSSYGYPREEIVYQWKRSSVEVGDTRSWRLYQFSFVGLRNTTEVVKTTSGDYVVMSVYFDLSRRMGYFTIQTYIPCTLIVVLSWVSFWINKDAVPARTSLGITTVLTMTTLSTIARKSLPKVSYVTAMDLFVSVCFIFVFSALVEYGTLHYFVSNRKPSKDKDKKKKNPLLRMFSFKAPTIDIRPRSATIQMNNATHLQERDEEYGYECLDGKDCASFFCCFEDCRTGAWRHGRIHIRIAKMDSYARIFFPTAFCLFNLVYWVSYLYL
# T1 sequence (P21728 whole entry): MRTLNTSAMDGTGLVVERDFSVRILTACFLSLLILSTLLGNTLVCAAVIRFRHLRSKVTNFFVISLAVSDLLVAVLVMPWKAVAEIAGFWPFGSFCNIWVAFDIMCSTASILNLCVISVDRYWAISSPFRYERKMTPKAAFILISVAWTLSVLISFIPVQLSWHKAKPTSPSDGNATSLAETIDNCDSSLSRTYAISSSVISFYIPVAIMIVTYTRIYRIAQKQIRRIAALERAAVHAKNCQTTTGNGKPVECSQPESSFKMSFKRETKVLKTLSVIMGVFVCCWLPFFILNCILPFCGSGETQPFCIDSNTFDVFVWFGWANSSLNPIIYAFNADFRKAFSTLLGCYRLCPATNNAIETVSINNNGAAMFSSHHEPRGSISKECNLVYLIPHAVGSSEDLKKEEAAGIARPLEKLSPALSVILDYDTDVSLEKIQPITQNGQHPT
Erel (%) (dopamine D1 receptor),pEC50 (dopamine D1 receptor),inhibition at 10 µM [1],SMILES
74%,7.90,2.7%,"C[C@H]1c2cccc(-c3cnn(C)c3)c2C[C@H](CO)N1C(=O)Cc1c(Cl)ccc2c1c(Cl)nn2C [Example 1, 2-(3,5-dichloro-1-methyl-indazol-4-yl)-1-[(1S,3R)-3-(hydroxymethyl)-1-methyl-5-(1-methylpyrazol-4-yl)-3,4-dihydro-1H-isoquinolin-2-yl]ethanone]"
61%,8.20,7.8%,"C[C@H]1c2cccc(-c3cn[nH]c3)c2C[C@H](CO)N1C(=O)Cc1c(Cl)ccc2[nH]nc(Cl)c12 [Example 3, 2-(3,5-dichloro-1H-indazol-4-yl)-1-[(1S,3R)-3-(hydroxymethyl)-1-methyl-5-(1H-pyrazol-4-yl)-3,4-dihydro-1H-isoquinolin-2-yl]ethanone]"
71%,8.20,0%,"C[C@H]1c2cccc(-c3cn[nH]c3)c2C[C@H](CO)N1C(=O)Cc1c(Cl)ccc2c1c(Cl)nn2C [Example 2, 2-(3,5-dichloro-1-methyl-indazol-4-yl)-1-[(1S,3R)-3-(hydroxymethyl)-1-methyl-5-(1H-pyrazol-4-yl)-3,4-dihydro-1H-isoquinolin-2-yl]ethanone]"
63%,8.10,10.1%,"C[C@H]1c2cccc(-c3cnn(C)c3)c2C[C@H](CO)N1C(=O)Cc1c(Cl)ccc2[nH]nc(Cl)c12 [Example 4, 2-(3,5-dichloro-1H-indazol-4-yl)-1-[(1S,3R)-3-(hydroxymethyl)-1-methyl-5-(1-methylpyrazol-4-yl)-3,4-dihydro-1H-isoquinolin-2-yl]ethanone]"

# From patent publication US20240083875A1, “DIHYDROISOQUINOLINYL DERIVATIVES” (UCB BIOPHARMA SRL, priority 2020, published 2024)
